Assay results from patent US20250332173A1, “COMPOUNDS AND METHODS FOR MODULATING NUCLEIC ACID SPLICING” (REMIX THERAPEUTICS INC., priority 2021, published 2025).
Where two headings read alike, the source gives them in different places.

Tests used:
[1] = test system: MYB mRNA; experiment: RT-qPCR splicing assay, MYB canonical junction (CJ) and alternative junction (AJ) mRNA; assay type: cell-based, human; conditions: Homo sapiens; for AC50: increase in MYB alternative junction (AJ) mRNA, read-out: MYB AJ AC50
Procedure, shortened: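 A673 cells (normalized to PPIA) or K562 cells (normalized to GAPDH or GUSB) were treated 24 h at 37 °C with an 11-point 3-fold dilution series, top 10 uM, DMSO ≤0.25%. Cell lysates went to one-step RT-qPCR measuring canonical- and alternative-junction MYB or HTT transcripts.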

[2] = test system: Target C; experiment: RT-qPCR splicing assay panel, Target C canonical junction (CJ) mRNA; assay type: cell-based, human; conditions: Homo sapiens; canonical junction qPCR panel, Table 5; read-out: Target C (decrease in CJ mRNA levels, IC50)
Procedure, shortened: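 Read-out is canonical exon-exon junction mRNA quantified by RT-qPCR against a GAPDH, GUSB or PPIA control. Cells (A673 or K562) received compound for 24 h, top final dose 10 uM in an 11-point 3-fold series.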

[3] = canonical junction qPCR panel, Table 5, read-out: MYB (decrease in CJ mRNA levels, IC50)
[4] = decrease in MYB canonical junction (CJ) mRNA, RT-qPCR, read-out: MYB CJ IC50

| Compound | IC50 [1, 3] | IC50 [1, 4] | IC50 [2] | AC50 ([1]; RT-qPCR) |
| --- | --- | --- | --- | --- |
| Cc1c(O)c(-c2ncc3c(=O)n([C@H]4CCN[C@H](C)C4)ccc3n2)cc2cn(C)nc12 [Compound 1461, 2-(6-hydroxy-2,7-dimethyl-indazol-5-yl)-6-[(2R,4S)-2-methyl-4-piperidyl]pyrido[4,3-d]pyrimidin-5-one] | < 100 nM | < 100 nM | 100 to 1000 nM | < 100 nM |
| Cc1c(O)c(-c2ncc3c(=O)n([C@@H]4CCN[C@@H](C)C4)ccc3n2)cc2cn(C)nc12 [Compound 1462, 2-(6-hydroxy-2,7-dimethyl-indazol-5-yl)-6-[(2S,4R)-2-methyl-4-piperidyl]pyrido[4,3-d]pyrimidin-5-one] | < 100 nM | < 100 nM | 100 to 1000 nM | < 100 nM |
| Cc1c(O)c(-c2ccc3c(=O)n([C@@H]4C[C@@H](C)N[C@@H](C)C4)ccc3n2)cc2cn(C)nc12 [Compound 1463, 6-[(2S,6R)-2,6-dimethyl-4-piperidyl]-2-(6-hydroxy-2,7-dimethyl-indazol-5-yl)-1,6-naphthyridin-5-one] | 100 to 1000 nM | 100 to 1000 nM | 1000 to 10000 nM | 100 to 1000 nM |
| Cn1cc2cc(-c3ncc4c(=O)n([C@@H]5CCNC5)ccc4n3)c(O)c(F)c2n1 [Compound 1466] | 100 to 1000 nM | 100 to 1000 nM | 100 to 1000 nM | 100 to 1000 nM |
| Cn1cc2cc(-c3ncc4c(=O)n(C56CCC(N)(CC5)C6)ccc4n3)c(O)cc2n1 [Compound 1470] | 100 to 1000 nM | 100 to 1000 nM | 1000 to 10000 nM | 100 to 1000 nM |
| Cc1c(O)c(-c2ncc3c(=O)n([C@@H]4C[C@H]5COC[C@@H](C4)N5)ccc3n2)cc2cn(C)nc12 [Compound 1471] | < 100 nM | < 100 nM | 100 to 1000 nM | < 100 nM |
| Cc1c(O)c(-c2ncc3c(=O)n([C@@H]4CC[C@@H](N)C4)ccc3n2)cc2cn(C)nc12 [Compound 1476, 6-[(1R,3R)-3-aminocyclopentyl]-2-(6-hydroxy-2,7-dimethyl-indazol-5-yl)pyrido[4,3-d]pyrimidin-5-one] | 100 to 1000 nM | 100 to 1000 nM | 1000 to 10000 nM | 100 to 1000 nM |
| Cc1c(O)c(-c2ncc3c(=O)n([C@@H]4CC[C@H](N)C4)ccc3n2)cc2cn(C)nc12 [Compound 1477] | < 100 nM | < 100 nM | 100 to 1000 nM | < 100 nM |
| CNC12CCC(n3ccc4nc(-c5cc6cn(C)nc6c(C)c5O)ncc4c3=O)(CC1)C2 [Compound 1479] | < 100 nM | 100 to 1000 nM | 1000 to 10000 nM | < 100 nM |
| Cc1c(O)c(-c2ncc3c(=O)n([C@H]4CCNC5(CC5)C4)ccc3n2)cc2cn(C)nc12 [Compound 1512] | < 100 nM | 100 to 1000 nM | 100 to 1000 nM | < 100 nM |
| Cc1c(O)c(-c2nc(C)c3c(=O)n([C@@H]4CCNC5(CC5)C4)ccc3n2)cc2cn(C)nc12 [Compound 1515, (R)-2-(6-hydroxy-2,7-dimethyl-2H-indazol-5-yl)-4-methyl-6-(4-azaspiro[2.5]octan-7-yl)pyrido[4,3-d]pyrimidin-5(6H)-one] | < 100 nM | 100 to 1000 nM | 100 to 1000 nM | < 100 nM |
| Cc1cn2nc(-c3ccc4c(=O)n([C@@H]5CCN(C)[C@H](C)C5)ncc4n3)cc(C)c2n1 [Compound 1527] | 100 to 1000 nM | 100 to 1000 nM | 100 to 1000 nM | 100 to 1000 nM |
| CCN1CC[C@@H](n2ncc3nc(-c4cc(C)c5nc(C)cn5n4)ccc3c2=O)CC12CC2 [Compound 1530] | < 100 nM | < 100 nM | < 100 nM | < 100 nM |
| CCN1CC[C@H](n2ncc3nc(-c4cc(C)c5nc(C)cn5n4)ccc3c2=O)CC12CC2 [Compound 1531] | 100 to 1000 nM | 100 to 1000 nM | 100 to 1000 nM | 100 to 1000 nM |
| Cc1cn2nc(-c3ccc4c(=O)n([C@H]5CCN(C)C6(CC6)C5)ncc4n3)cc(C)c2n1 [Compound 1533] | 100 to 1000 nM | 100 to 1000 nM | 100 to 1000 nM | 100 to 1000 nM |
| Cc1cn2nc(-c3ccc4c(=O)n([C@@H]5CCN(C)C6(CC6)C5)ncc4n3)cc(C)c2n1 [Compound 1534] | 100 to 1000 nM | < 100 nM | < 100 nM | 100 to 1000 nM |
| Cc1cn2nc(-c3ccc4c(=O)n(C5CCN(CCF)C6(CC6)C5)ncc4n3)cc(C)c2n1 (centres unmarked) [Compound 1542, 2-(2,8-dimethylimidazo[1,2-b]pyridazin-6-yl)-6-[4-(2-fluoroethyl)-4-azaspiro[2.5]octan-7-1]pyrido[2,3-d]pyridazin-5-one] | 1000 to 10000 nM | 1000 to 10000 nM | 1000 to 10000 nM | 1000 to 10000 nM |
| Cc1cn2nc(-c3ccc4c(=O)n(C5CCN(CC6CC6)C6(CC6)C5)ncc4n3)cc(C)c2n1 (centres unmarked) [Compound 1543, 6-[4-(cyclopropylmethyl)-4-azaspiro[2.5]octan-7-yl]-2-(2,8-dimethylimidazo[1,2-b]pyridazin-6-yl)pyrido[2,3-d]pyridazin-5-one] | 100 to 1000 nM | 100 to 1000 nM | 100 to 1000 nM | 100 to 1000 nM |
| Cc1cn2nc(-c3ccc4c(=O)n(C5CCNC6(CCC6)C5)ncc4n3)cc(C)c2n1 (centres unmarked) [Compound 1553] | 1000 to 10000 nM | 1000 to 10000 nM | 1000 to 10000 nM | 1000 to 10000 nM |
| Cn1cc2ccc(-n3cnc4ccc(NC5CCNCC5)cc4c3=O)cc2n1 [Compound 2164] | > 10000 nM | > 10000 nM | 1000 to 10000 nM | > 10000 nM |

The next lines start with results.

| IC50 [1, 3] | IC50 [1, 4] | IC50 [2] | Compound | AC50 ([1]; RT-qPCR) |
| --- | --- | --- | --- | --- |
| < 100 nM | 100 to 1000 nM | 100 to 1000 nM | Cc1c(O)c(-c2ncc3c(=O)n([C@H]4CC[C@H](N(C)C)CC4)ccc3n2)cc2cn(C)nc12 [Compound 1459, 6-((1r,4r)-4-(dimethylamino)cyclohexyl)-2-(6-hydroxy-2,7-dimethyl-2H-indazol-5-yl)pyrido[4,3-d]pyrimidin-5(6H)-one] | < 100 nM |
| 100 to 1000 nM | 100 to 1000 nM | 1000 to 10000 nM | Cc1c(O)c(-c2ncc3c(=O)n([C@H]4CC[C@@H](N(C)C)CC4)ccc3n2)cc2cn(C)nc12 [Compound 1460, 6-((1s,4s)-4-(dimethylamino)cyclohexyl)-2-(6-hydroxy-2,7-dimethyl-2H-indazol-5-yl)pyrido[4,3-d]pyrimidin-5(6H)-one] | 100 to 1000 nM |
| < 100 nM | 100 to 1000 nM | 1000 to 10000 nM | Cc1c(O)c(-c2ccc3c(=O)n([C@H]4C[C@@H](C)N[C@@H](C)C4)ccc3n2)cc2cn(C)nc12 [Compound 1464, 6-[(2S,6R)-2,6-dimethyl-4-piperidyl]-2-(6-hydroxy-2,7-dimethyl-indazol-5-yl)-1,6-naphthyridin-5-one] | < 100 nM |
| 100 to 1000 nM | 100 to 1000 nM | 100 to 1000 nM | Cn1cc2cc(-c3ncc4c(=O)n([C@H]5CCNC5)ccc4n3)c(O)c(F)c2n1 [Compound 1465] | 100 to 1000 nM |
| 100 to 1000 nM | 100 to 1000 nM | > 10000 nM | Cc1c(O)c(-c2ccc3c(=O)n(C4CCNC4)cc(C)c3n2)cc2cn(C)nc12 (centres unmarked) [Compound 1467] | 100 to 1000 nM |
| < 100 nM | < 100 nM | 100 to 1000 nM | Cn1cc2cc(-c3ncc4c(=O)n(C56CCC(N)(CC5)C6)ccc4n3)c(O)c(F)c2n1 [Compound 1468] | < 100 nM |
| 100 to 1000 nM | 100 to 1000 nM | 100 to 1000 nM | Cc1cn2cc(-c3ncc4c(=O)n(C56CCC(N)(CC5)C6)ccc4n3)cc(F)c2n1 [Compound 1469, 6-(4-aminonorbornane-1-yl)-2-(8-fluoro-2-methyl-imidazo[1,2-a]pyridin-6-yl)pyrido[4,3-d]pyrimidin-5-one] | 100 to 1000 nM |
| 100 to 1000 nM | 100 to 1000 nM | 100 to 1000 nM | COc1cc(-c2ccc3c(=O)n([C@H]4CCN[C@@H](C)C4)ccc3n2)nn2cc(C)nc12 [Compound 1519, 2-(8-methoxy-2-methyl-imidazo[1,2-b]pyridazin-6-yl)-6-[(2S,4S)-2-methyl-4-piperidyl]-1,6-naphthyridin-5-one] | 100 to 1000 nM |
| 100 to 1000 nM | 100 to 1000 nM | 100 to 1000 nM | Cc1cn2nc(-c3ccc4c(=O)n([C@H]5CCN(C)[C@@H](C)C5)ncc4n3)cc(C)c2n1 [Compound 1528, 2-(2,8-dimethylimidazo[1,2-b]pyridazin-6-yl)-6-(1,2-dimethyl-4-piperidyl)pyrido[2,3-d]pyridazin-5-one] | 100 to 1000 nM |
| 100 to 1000 nM | 100 to 1000 nM | 100 to 1000 nM | Cc1cn2nc(-c3ccc4c(=O)n(C5CCN(CCO)C6(CC6)C5)ncc4n3)cc(C)c2n1 (centres unmarked) [Compound 1541, 2-(2,8-dimethylimidazo[1,2-b]pyridazin-6-yl)-6-[4-(2-hydroxyethyl)-4-azaspiro[2.5]octan-7-yl]pyrido-[2,3-d]pyridazin-5-one] | 100 to 1000 nM |
| 100 to 1000 nM | 100 to 1000 nM | 100 to 1000 nM | Cc1cn2nc(-c3ccc4c(=O)n([C@@H]5CCNC6(CCC6)C5)ncc4n3)cc(C)c2n1 [Compound 1545, 6-[(8R)-5-azaspiro[3.5]nonan-8-yl]-2-(2,8-dimethylimidazo[1,2-b]pyridazin-6-yl)pyrido[2,3-d]pyridazin-5-one] | 100 to 1000 nM |
| > 10000 nM | > 10000 nM | > 10000 nM | Cc1cc(-c2ccc3ncn(C4CCNCC4)c(=O)c3c2)cc2cn(C)nc12 [Compound 2169] | > 10000 nM |
